Legend:
1246 cells = test: Differentiation of 1246 cells (G3PDH enzymatic activity); type: cell-based
Procedure: FIG. 11 is a graph showing the dose-related inhibition of adipocyte differentiation by prostaglandin F2α (PGF^2α). 1246 cells were incubated with the indicated dose of pGF^2α
FIG. 12 is a graph showing that indomethacin reverses the EGF-induced inhibition of adipocyte differentiation. 1246 cells were incubated in medium ("no"=control, 100% of activity) or in the presence of indicated concentrations of EGF, indomethacin ("Indo") or a mixture of EGF (E) at the indicated concentration and indomethacin (I) at 3 μM. As above, differentiation was assessed as G3PDH enzymatic activity.
Stimulation of PLA2 will result in the activation of the cyclooxygenase pathway, leading to generation of various prostaglandins, as is well-known in the art. One metabolite of this pathway, prostaglandin F2α (PGF2α), was tested for its ability to act as a mediator of the EGF effect and inhibit adipocyte differentiation.
If EGF inhibits adipocyte differentiation via the activation of PLA2 and cyclooxygenase, it would be expected that an inhibitor of cyclooxygenase would counteract the EGF effect.

obese yellow mice = test: Neonatal EGF treatment of obese yellow mice, body weight development over 43 days; type: in vivo, mouse; conditions: 1 μg/g body weight, day 1 to day 10 of life
Procedure: FIG. 7 is a graph showing the effect of EGF treatment on development of body weight in obese yellow mice over 43 days. Mice were injected beginning at 24 hours after birth with EGF (1 μg/g body weight) (filled diamonds, marked 1Y) or with vehicle (PBS) (+, marked OY) for 9 days. Weights are shown beginning at postnatal day 13

phospholipase A2 (PLA2) = conditions: EGF 10 ng/ml
Procedure: Experiments were performed to examine whether stimulation of adipocyte precursors, either primary cultures or the 1246 cell line, activated the enzyme phospholipase A2 (PLA2) which results in the activation of cyclooxygenase and the generation of prostaglandins.

[1] = tested on: adipocyte precursors isolated from inguinal fat pads; test: Inhibition by EGF of differentiation of primary culture adipocyte precursors (G3PDH activity); type: cell-based, rat
Procedure: (§1) Inguinal fat pads, well developed in 10 day-old animals, can be easily dissected. Inguinal fat pads were excised, weighed and pooled. They were digested with collagenase using the method of Bjorntorp et al. (23), and duplicate aliquots were kept for measuring triglyceride content as described below. Digestion conditions minimized breakage of adipocytes during the incubation period (23). After digestion, the cell suspension was filtered through a 253 μm nylon mesh filter. Adipocytes were easily recovered by two successive flotations of the cell suspension. The infranatant containing the adipocyte precursors was removed with a plastic pipet and further filtered through an 80 μm nylon mesh. The adipocytes remained in the tube after removal of the infranatant. They were gently resuspended in culture medium and counted in a hemocytometer. The filtrate containing the adipocyte precursors was centrifuged twice at 200×g for 5 minutes. Adipocyte precursor pellets were resuspended in 4F medium. The cells were subsequently counted in a hemocytometer and inoculated in 35 mm dishes in 4F medium as described previously (24). Such cultures were used to evaluate the cells' ability to differentiate and to measure their responsiveness to EGF.
(§2) The defined medium designated 4F consists of a 1:1 mixture of Dulbecco's modified Eagle's medium (DME) and Ham's F12 medium (DME-F12 medium) containing 15 mM HEPES, pH 7.4, 1.2 mg/ml sodium bicarbonate, 50 μg/ml gentamicin, and the following mixture of proteins: fibronectin (2.5 μg/ml), insulin (10 μg/ml), transferrin (10 μg/ml) and fibroblast growth factor (10 ng/ml). The medium was originally developed to support the differentiation of the adipogenic cell line, 1246 (25). When cultivated in this medium, optimal differentiation of adipocyte precursors was achieved within 8 days of culture (24).
Studies from the present inventor's laboratory (10) have shown that the differentiation in vitro of adipocyte precursors cultivated in 4F medium was inhibited in a dose-dependent manner by EGF added to the medium. […]

[2] = tested on: adipocyte precursors isolated from inguinal fat pads; conditions: earlier study; cited from earlier work
adipocyte precursors = test: Effect of EGF on proliferation of adipocyte precursors in 4F medium (cell count); type: cell-based, rat
Procedure: FIG. 5 is a graph showing the effect of EGF on proliferation of adipocyte precursors. Controls and EGF-treated animals as in FIG. 4. After 8 days of culture, cells were detached with trypsin and counted on a Coulter counter. Values represent means±standard errors.
For this purpose, adipocyte precursors isolated from inguinal fat pads of control or EGF-injected animals (1 μg/g body weight) were cultivated in 4F medium alone or in the presence of increasing concentrations of EGF. […] The ED50 for EGF on cells from EGF-treated animals was calculated to be 0.5 ng/ml, compared to an ED50 of 0.9 ng/ml for EGF acting on control cells.
Marked stimulation of proliferation (in cells from controls or EGF-treated rats) was observed only at EGF concentrations above 1 ng/ml.

newborn rats = test: Neonatal EGF treatment of rats, body weight development over 28 days; type: in vivo, rat; conditions: 0.6 μg/g body weight, from 24 hours after birth, 9 days
Procedure: FIG. 6 is a graph showing the effect of EGF treatment of newborn rats on development of body weight over 28 days. Rats were injected beginning at 24 hours after birth with EGF (0.6 μg/g body weight) (filled squares) or with vehicle (PBS) (+) for 9 days.

[3] = tested on: newborn NBR rats (inguinal fat pads); test: Daily sc EGF injection of newborn NBR rats for 10 days: eyelid response, body, organ and inguinal fat pad measures; type: in vivo, rat
Procedure: New Zealand Brown (NBR) rats (Trudeau Institute, Saranac Lake, N.Y.) were mated in the animal facilities of the W. Alton Jones Cell Science Center. One day after delivery, litter size was adjusted to 6-8 pups/female according to the size and age of the females. No more than 8 pups/female were used. Mothers were fed ad libitum a regular laboratory diet and were allowed free access to water. Animals were housed in rooms in which the air flow, temperature and lights were controlled (12 h of light between 6 AM to 6 PM).
Mouse "receptor grade" EGF (Biomedical Technologies, Inc.) was used in all experiments. […] Beginning at 24 hrs after birth, rats were injected subcutaneously (sc) daily for 10 days with EGF dissolved in physiological saline at doses varying between 0.1 and 1.0 μg/g of body weight. The pups were weighed prior to each injection. Control animals were similarly handled and weighed, and were injected sc with an equivalent volume of physiological saline.
as §1
For determination of triglyceride content, lipids were extracted from duplicate aliquots of the fat pad cell suspensions obtained as above pads, using the method of Bligh et al. (26). Triglycerides were separated by thin-layer chromatography on silica gel plates using hexane/[…]/formic acid (60:40:1) as a solvent system. Spots containing triglycerides were scraped, and the triglyceride content was determined by the method of Marsh et al. (27). This method consists of a quantitative charring of the triglycerides at 200° C. for 15 min in the presence of concentrated sulfuric acid. Absorbance of the samples at 350 nm was measured in a spectrophotometer using known amounts of triolein as standards.
Ten separate in vivo experiments were performed with neonatal NBR rats. Over the 10 day period, pups injected with saline alone or with EGF were weighed daily. The efficiency of EGF injected was assessed by monitoring the "eyelid response," by determining the postnatal day on which eyelid opening occurs, which is related to the EGF dose (28). Eyelid opening occurred at day 8 in rats injected with EGF at a concentration of 1 μg/g body weight, 24 hrs later in rats treated with 0.6 μg EGF/g body weight, and 48 hrs later in rats injected with 0.3 μg EGF/g body weight.

[4] = tested on: adipocyte precursors isolated from inguinal fat pads; test: Differentiation capacity in 4F medium of adipocyte precursors isolated from EGF-treated rats (G3PDH specific activity); type: cell-based, rat
Procedure: as §1, §2
It was shown previously (24) that adipocyte precursors freshly isolated from inguinal fat pads of 48 hr-old rats proliferated and differentiated in 4F medium (see above). […]

[5] = tested on: organs including inguinal fat pads; conditions: rat, in vivo
Source text: One question raised by the above results is whether the inhibition of adipose tissue development by EGF is due to a direct action of EGF on adipose tissue or by indirect action via another growth factor or hormone. Several observations point to direct action of EGF: EGF inhibits the differentiation of primary culture of adipocyte precursors freshly isolated from inguinal fat pads (10); adipocyte precursors have specific EGF receptors on their surface (10).

EGF receptors = biological target: T1, EGF receptors (Rattus norvegicus, UniProt G3V6K6); test: 125I-EGF binding to EGF receptors on adipocyte precursors; conditions: control and treated rats, with or without acid wash
T1 construct: adipocyte precursors have specific EGF receptors on their surface; endogenous in cells; host or cells: primary adipocyte precursors from inguinal fat pads of neonatal NBR rats
Source text: The properties of adipocytes from EGF-treated rats, namely, a decreased ability to differentiate and an increased sensitivity to EGF in vitro, could not be explained by occupancy of EGF receptors at the time of cell isolation.

[6] = EGF-treated compared to control animals

Q: Which “effect on EGF inhibition of adipocyte differentiation” value (1246 cells; indomethacin 3 μM with EGF at 2 or 10 ng/ml) does the source give for `COc1ccc2c(c1)c(CC(=O)O)c(C)n2C(=O)c1ccc(Cl)cc1` [indomethacin] here?
A: The value was “completely reversed”.

Q: With Epidermal growth factor [EGF] as the compound, how does the “body weight over at least 43 days” value (obese yellow mice) read?
A: Its value is “prolonged and profound diminution in body weight”.

Q: What about the PLA2 activity (phospholipase A2 (PLA2)) of the same compound?
A: Its PLA2 activity is “increase in PLA2 activity”.

Q: And the “differentiation (G3PDH activity)” value ([1]; EGF 10 ng/ml, primary cultures)?
A: Its value is “inhibition of differentiation”.

Q: What about the “ED50 for inhibition of differentiation (G3PDH enzyme activity)” value ([1]; cells from EGF-treated animals (1 μg/g body weight)) of the same compound?
A: Its value is 0.5 ng/mL.

Q: What about the “ED50 for inhibition of differentiation (G3PDH enzyme activity)” value ([1]; control cells) of the same compound?
A: The value was 0.9 ng/mL.

Q: And the “differentiation of primary culture adipocyte precursors from inguinal fat pad of newborn rats” value [2]?
A: Its value is “potent inhibitor”.

Q: And the “effect on cell proliferation of the EGF concentration which inhibited differentiation by 50%” value (adipocyte precursors)?
A: Its value is “moderate or no effects”.

Q: What about the “proliferation of adipocyte precursors” value (adipocyte precursors; EGF added to 4F medium, cells from control and EGF-treated rats, 8 days) of the same compound?
A: Its value is “stimulated proliferation”.

Q: And the “EGF concentration giving marked stimulation of proliferation” value (adipocyte precursors; cells from controls or EGF-treated rats)?
A: The value was “above 1 ng/ml”.

Q: And the “body weight over a 28 day period” value (newborn rats)?
A: Its value is “significant reduction in body weight”.

Q: And the “eyelid opening at termination, day 10” value ([3]; 0.1 μg EGF/g body weight sc daily)?
A: The value was “eyelid opening had not yet occurred”.

Q: What about the “eyelid opening, time later than at the 1 μg/g dose” value ([3]; 0.3 μg EGF/g body weight sc daily) of the same compound?
A: Its value is 48 h.

Q: What about the “eyelid opening, time later than at the 1 μg/g dose” value ([3]; 0.6 μg EGF/g body weight sc daily) of the same compound?
A: Its value is 24 h.

Q: What about the “fat pad triglyceride content, lower than control” value ([3]; 1 μg EGF/g body weight) of the same compound?
A: The value was 80%.

Q: What about the “number of mature adipocytes in the fat pad, lower than in control animals” value ([3]; 1 μg EGF/g body weight) of the same compound?
A: The value was 4 fold.

Q: What about the “body weight, less than in control animals” value ([3]; 1 μg EGF/g body weight, 10 days) of the same compound?
A: Its value is 40%.

Q: And the “inguinal fat pad weight, lower than in controls” value ([3]; 1 μg of EGF/g body weight, 10 days)?
A: Its value is 50%.

Q: What about the “number of adipocyte precursors per fat pad, higher than in control animals” value ([3]; 1 μg/g body weight) of the same compound?
A: The value was 1.8 fold.

Q: And the “postnatal day on which eyelid opening occurs” value ([3]; 1 μg/g body weight sc daily)?
A: Its value is 8 days.

Q: What about the intestinal weight ([3]; EGF treatment) of the same compound?
A: The intestinal weight was “increased”.

Q: What about the kidney weight ([3]; EGF treatment) of the same compound?
A: Its kidney weight is “some decrease”.

Q: What about the liver weight ([3]; EGF treatment) of the same compound?
A: The liver weight was “unchanged”.

Q: And the “total number of cells (precursors plus adipocytes) in fat pads, lower than controls” value ([3]; EGF-treated animals)?
A: Its value is 40%.

Q: And the hair growth [3, 6]?
A: Its hair growth is “delay in hair growth”.

Q: And the incisor eruption [3, 6]?
A: The incisor eruption was “acceleration of incisor eruption”.

Q: And the “lowest EGF dose at which a significant delay of adipose tissue development was observed” value ([3]; daily sc injection)?
A: Its value is 0.3 μg/g body weight.

Q: And the “G3PDH specific activity corresponding to 100% activity (FIG. 4)” value ([4]; cells from EGF-treated rats)?
A: The value was 337±53 milliunits/mg protein.

Q: And the “G3PDH specific activity, lower than control” value ([4]; cells from animals treated with 1 μg/g, day 8 of culture)?
A: The value was 60%.

Q: And the G3PDH specific activity ([4]; cells from animals treated with EGF 1 μg/g, 5 separate experiments)?
A: Its G3PDH specific activity is 337±53 mU/mg protein.

Q: What does the source list for “^125 I-EGF: radiolabeled EGF used in binding studies”?
A: binding to organs after sc injection [5]: specifically bound to several organs including inguinal fat pads; EGF bound to EGF receptors on adipocyte precursors (EGF receptors): about 4 pg EGF bound per 10^5 cells

Q: With prostaglandin F2α [PGF2α] as the compound, how does the “differentiation of 1246 cells” value (1246 cells; indicated doses (FIG. 11)) read?
A: Its value is “concentration-dependent inhibition”.

Q: For transforming growth factor.α [TGFα], which “differentiation of primary culture adipocyte precursors from inguinal fat pad of newborn rats” value [2] is on record?
A: The value was “potent inhibitor”.
